In ChEMBL document CHEMBL2040781, “Design, synthesis, and biological evaluation of chromone-based p38 MAP kinase inhibitors” (J Med Chem, 2011):
Active and inactive are the calls of the source. No cut-off for these calls is given here.

Key:
[1] = test system: MDA-MB-436; assay: Antiproliferative activity against human MDA-MB-436 cells at 1 uM after 4 hrs by prestoblue cell viability assay; type: functional, cell-based
[2] = target: Mitogen-activated protein kinase 14 (Homo sapiens, UniProt Q16539); assay: Inhibition of p38alpha MAPK after 40 mins by scintillation counting
[3] = target: Tyrosine-protein kinase ABL1 (Homo sapiens) (UniProt P00519); assay: Inhibition of human Abl assessed as remaining activity at 0.8 uM after 40 mins by scintillation counting
[4] = target: ALK tyrosine kinase receptor (Homo sapiens) (UniProt Q9UM73); assay: Inhibition of human ALK assessed as remaining activity at 0.8 uM after 40 mins by scintillation counting
[5] = target: Aurora kinase A (Homo sapiens) (UniProt O14965); assay: Inhibition of human Aurora-A assessed as remaining activity at 0.8 uM after 40 mins by scintillation counting
[6] = target: Calcium/calmodulin-dependent protein kinase type 1 (Homo sapiens) (UniProt Q14012); assay: Inhibition of human CaMKI assessed as remaining activity at 0.8 uM after 40 mins by scintillation counting
[7] = target: Cyclin-dependent kinase 1/cyclin B1 (Homo sapiens) (UniProt P06493+P14635); assay: Inhibition of human CDK1/cyclinB assessed as remaining activity at 0.8 uM after 40 mins by scintillation counting; type: protein-complex assay
[8] = target: CDK6/cyclin D3 (Homo sapiens) (UniProt P30281+Q00534); assay: Inhibition of human CDK6/cyclinD3 assessed as remaining activity at 0.8 uM after 40 mins by scintillation counting; type: protein-complex assay
[9] = target: CDK9/cyclin T1 (Homo sapiens) (UniProt O60563+P50750); assay: Inhibition of human CDK9/cyclin T1 assessed as remaining activity at 0.8 uM after 40 mins by scintillation counting; type: protein-complex assay
[10] = target: Serine/threonine-protein kinase Chk1 (Homo sapiens) (UniProt O14757); assay: Inhibition of human CHK1 assessed as remaining activity at 0.8 uM after 40 mins by scintillation counting
[11] = target: RAF proto-oncogene serine/threonine-protein kinase (Homo sapiens) (UniProt P04049); assay: Inhibition of human RAF assessed as remaining activity at 0.8 uM after 40 mins by scintillation counting
[12] = target: Serine/threonine-protein kinase 17A (Homo sapiens) (UniProt Q9UEE5); assay: Inhibition of human DRAK1 assessed as remaining activity at 0.8 uM after 40 mins by scintillation counting
[13] = target: Epidermal growth factor receptor (Homo sapiens) (UniProt P00533); assay: Inhibition of human EGFR assessed as remaining activity at 0.8 uM after 40 mins by scintillation counting
[14] = target: Ephrin type-A receptor 5 (Homo sapiens) (UniProt P54756); assay: Inhibition of human EphA5 assessed as remaining activity at 0.8 uM after 40 mins by scintillation counting
[15] = target: Ephrin type-B receptor 4 (Homo sapiens) (UniProt P54760); assay: Inhibition of human EphB4 assessed as remaining activity at 0.8 uM after 40 mins by scintillation counting
[16] = target: Glycogen synthase kinase-3 beta (Homo sapiens) (UniProt P49841); assay: Inhibition of human GSK3beta assessed as remaining activity at 0.8 uM after 40 mins by scintillation counting
[17] = target: Interleukin-1 receptor-associated kinase 4 (Homo sapiens) (UniProt Q9NWZ3); assay: Inhibition of human IRAK4 assessed as remaining activity at 0.8 uM after 40 mins by scintillation counting
[18] = target: Tyrosine-protein kinase JAK2 (Homo sapiens) (UniProt O60674); assay: Inhibition of human JAK2 assessed as remaining activity at 0.8 uM after 40 mins by scintillation counting
[19] = target: Mitogen-activated protein kinase 8 (Homo sapiens) (UniProt P45983); assay: Inhibition of human JNK1alpha1 assessed as remaining activity at 0.8 uM after 40 mins by scintillation counting
[20] = target: Mitogen-activated protein kinase 9 (Homo sapiens) (UniProt P45984); assay: Inhibition of human JNK2alpha2 assessed as remaining activity at 0.8 uM after 40 mins by scintillation counting
[21] = target: Vascular endothelial growth factor receptor 2 (Homo sapiens) (UniProt P35968); assay: Inhibition of human KDR assessed as remaining activity at 0.8 uM after 40 mins by scintillation counting
[22] = target: Serine/threonine-protein kinase 10 (Homo sapiens) (UniProt O94804); assay: Inhibition of human LOK assessed as remaining activity at 0.8 uM after 40 mins by scintillation counting
[23] = target: Tyrosine-protein kinase Lyn (Homo sapiens) (UniProt P07948); assay: Inhibition of human Lyn assessed as remaining activity at 0.8 uM after 40 mins by scintillation counting
[24] = target: MAP kinase-activated protein kinase 2 (Homo sapiens) (UniProt P49137); assay: Inhibition of human MAPKAP-K2 assessed as remaining activity at 0.8 uM after 40 mins by scintillation counting
[25] = target: Dual specificity mitogen-activated protein kinase kinase 1 (Homo sapiens) (UniProt Q02750); assay: Inhibition of human MEK1 assessed as remaining activity at 0.8 uM after 40 mins by scintillation counting
[26] = target: Ribosomal protein S6 kinase alpha-4 (Homo sapiens) (UniProt O75676); assay: Inhibition of human MSK2 assessed as remaining activity at 0.8 uM after 40 mins by scintillation counting
[27] = target: Ribosomal protein S6 kinase beta-1 (Homo sapiens) (UniProt P23443); assay: Inhibition of human p70S6K assessed as remaining activity at 0.8 uM after 40 mins by scintillation counting
[28] = target: Serine/threonine-protein kinase pim-1 (Homo sapiens) (UniProt P11309); assay: Inhibition of human Pim-1 assessed as remaining activity at 0.8 uM after 40 mins by scintillation counting
[29] = target: RAC-alpha serine/threonine-protein kinase (Homo sapiens) (UniProt P31749); assay: Inhibition of human PKBalpha assessed as remaining activity at 0.8 uM after 40 mins by scintillation counting
[30] = target: Protein kinase C alpha type (Homo sapiens) (UniProt P17252); assay: Inhibition of human PKCalpha assessed as remaining activity at 0.8 uM after 40 mins by scintillation counting
[31] = target: Protein kinase C theta type (Homo sapiens) (UniProt Q04759); assay: Inhibition of human PKCtheta assessed as remaining activity at 0.8 uM after 40 mins by scintillation counting
[32] = target: cGMP-dependent protein kinase 1 (Homo sapiens) (UniProt Q13976); assay: Inhibition of human PKG1alpha assessed as remaining activity at 0.8 uM after 40 mins by scintillation counting
[33] = species: Homo sapiens; assay: Inhibition of human PI3K assessed as remaining activity at 0.8 uM after 40 mins by scintillation counting
[34] = target: MAP kinase-activated protein kinase 5 (Homo sapiens) (UniProt Q8IW41); assay: Inhibition of human PRAK assessed as remaining activity at 0.8 uM after 40 mins by scintillation counting
[35] = target: Rho-associated protein kinase 1 (Homo sapiens) (UniProt Q13464); assay: Inhibition of human ROCK-I assessed as remaining activity at 0.8 uM after 40 mins by scintillation counting

Ribosomal protein S6 kinase alpha-4 (Homo sapiens), sequence (O75676 whole entry, looked up): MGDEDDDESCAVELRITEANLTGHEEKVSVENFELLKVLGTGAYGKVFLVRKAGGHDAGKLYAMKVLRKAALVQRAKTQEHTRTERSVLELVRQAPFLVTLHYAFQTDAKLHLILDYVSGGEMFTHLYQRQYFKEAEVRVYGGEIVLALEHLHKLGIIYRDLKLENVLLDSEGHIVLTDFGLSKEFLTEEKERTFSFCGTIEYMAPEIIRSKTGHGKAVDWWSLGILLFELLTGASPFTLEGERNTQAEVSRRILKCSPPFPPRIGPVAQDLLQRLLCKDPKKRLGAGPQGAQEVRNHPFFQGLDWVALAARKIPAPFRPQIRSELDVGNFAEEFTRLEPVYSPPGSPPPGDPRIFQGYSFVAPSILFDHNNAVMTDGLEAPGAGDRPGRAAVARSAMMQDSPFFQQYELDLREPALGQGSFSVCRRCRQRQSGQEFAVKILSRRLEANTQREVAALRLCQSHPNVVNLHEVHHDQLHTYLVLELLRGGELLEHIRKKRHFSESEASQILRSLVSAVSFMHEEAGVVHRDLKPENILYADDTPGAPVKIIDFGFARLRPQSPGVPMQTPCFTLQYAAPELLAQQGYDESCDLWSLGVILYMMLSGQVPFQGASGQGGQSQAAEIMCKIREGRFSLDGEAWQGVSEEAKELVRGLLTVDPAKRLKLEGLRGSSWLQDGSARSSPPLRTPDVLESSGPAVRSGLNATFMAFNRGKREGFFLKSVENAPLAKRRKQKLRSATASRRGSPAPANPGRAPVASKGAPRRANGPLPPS
Mitogen-activated protein kinase 8 (Homo sapiens), sequence (P45983 whole entry): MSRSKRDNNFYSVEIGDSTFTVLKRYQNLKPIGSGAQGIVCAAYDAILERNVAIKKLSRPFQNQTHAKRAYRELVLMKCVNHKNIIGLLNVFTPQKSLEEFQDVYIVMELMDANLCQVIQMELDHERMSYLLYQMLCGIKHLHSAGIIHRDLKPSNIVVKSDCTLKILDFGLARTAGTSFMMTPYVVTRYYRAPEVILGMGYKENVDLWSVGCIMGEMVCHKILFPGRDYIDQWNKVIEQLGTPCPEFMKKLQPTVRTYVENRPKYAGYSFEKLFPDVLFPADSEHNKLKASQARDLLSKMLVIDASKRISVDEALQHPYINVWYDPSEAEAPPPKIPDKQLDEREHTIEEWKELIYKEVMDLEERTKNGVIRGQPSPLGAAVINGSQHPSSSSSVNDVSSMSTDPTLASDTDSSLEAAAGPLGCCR
Interleukin-1 receptor-associated kinase 4 (Homo sapiens), sequence (Q9NWZ3 whole entry): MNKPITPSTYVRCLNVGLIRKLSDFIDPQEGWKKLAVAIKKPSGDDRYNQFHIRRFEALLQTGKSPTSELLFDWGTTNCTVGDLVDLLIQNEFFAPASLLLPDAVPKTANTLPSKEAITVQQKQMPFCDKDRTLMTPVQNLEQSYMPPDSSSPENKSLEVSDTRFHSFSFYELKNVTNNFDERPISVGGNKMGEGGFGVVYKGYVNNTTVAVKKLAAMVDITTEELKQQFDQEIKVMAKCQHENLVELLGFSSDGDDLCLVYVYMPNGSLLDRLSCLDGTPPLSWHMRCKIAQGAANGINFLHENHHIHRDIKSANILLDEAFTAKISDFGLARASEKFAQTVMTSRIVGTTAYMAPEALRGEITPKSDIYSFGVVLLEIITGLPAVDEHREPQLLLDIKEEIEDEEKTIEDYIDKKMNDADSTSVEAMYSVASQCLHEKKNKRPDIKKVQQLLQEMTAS
Calcium/calmodulin-dependent protein kinase type 1 (Homo sapiens), sequence (Q14012 whole entry, looked up): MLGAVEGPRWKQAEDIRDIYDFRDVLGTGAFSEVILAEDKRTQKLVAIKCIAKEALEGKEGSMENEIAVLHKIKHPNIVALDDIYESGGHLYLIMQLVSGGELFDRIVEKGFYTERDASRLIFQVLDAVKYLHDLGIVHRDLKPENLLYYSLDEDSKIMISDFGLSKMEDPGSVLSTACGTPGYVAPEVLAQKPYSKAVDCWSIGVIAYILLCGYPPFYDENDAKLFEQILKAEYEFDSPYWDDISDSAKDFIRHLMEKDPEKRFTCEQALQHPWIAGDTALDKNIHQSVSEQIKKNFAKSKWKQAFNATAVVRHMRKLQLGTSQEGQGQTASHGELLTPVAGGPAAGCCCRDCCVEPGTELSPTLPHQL
Serine/threonine-protein kinase pim-1 (Homo sapiens), sequence (P11309 whole entry, looked up): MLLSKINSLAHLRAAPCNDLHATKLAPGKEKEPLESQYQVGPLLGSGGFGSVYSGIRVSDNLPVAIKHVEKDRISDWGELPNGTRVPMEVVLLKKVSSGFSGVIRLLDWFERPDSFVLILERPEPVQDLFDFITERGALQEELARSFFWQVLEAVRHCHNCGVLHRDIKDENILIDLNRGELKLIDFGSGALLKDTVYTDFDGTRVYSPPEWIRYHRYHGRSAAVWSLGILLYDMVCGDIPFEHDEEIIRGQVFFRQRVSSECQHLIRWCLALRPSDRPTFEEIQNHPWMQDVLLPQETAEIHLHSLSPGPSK
RAF proto-oncogene serine/threonine-protein kinase (Homo sapiens), sequence (P04049 whole entry): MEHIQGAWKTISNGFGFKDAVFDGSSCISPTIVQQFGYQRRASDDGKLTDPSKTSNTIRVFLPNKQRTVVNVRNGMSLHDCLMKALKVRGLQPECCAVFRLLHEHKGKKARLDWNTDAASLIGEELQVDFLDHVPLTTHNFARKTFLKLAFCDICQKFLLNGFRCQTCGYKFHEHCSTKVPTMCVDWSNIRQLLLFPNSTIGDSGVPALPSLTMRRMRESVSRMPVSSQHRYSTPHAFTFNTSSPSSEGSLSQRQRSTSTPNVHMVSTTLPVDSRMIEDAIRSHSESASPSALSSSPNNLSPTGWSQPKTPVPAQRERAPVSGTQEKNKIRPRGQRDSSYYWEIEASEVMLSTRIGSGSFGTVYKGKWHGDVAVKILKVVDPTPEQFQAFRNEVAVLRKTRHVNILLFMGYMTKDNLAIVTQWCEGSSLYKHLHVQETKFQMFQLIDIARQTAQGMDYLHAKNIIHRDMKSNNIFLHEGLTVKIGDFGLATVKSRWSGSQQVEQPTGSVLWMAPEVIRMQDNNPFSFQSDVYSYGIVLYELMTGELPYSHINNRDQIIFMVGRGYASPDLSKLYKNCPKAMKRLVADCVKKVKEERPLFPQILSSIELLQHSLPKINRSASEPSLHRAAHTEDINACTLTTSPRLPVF
Glycogen synthase kinase-3 beta (Homo sapiens), sequence (P49841 whole entry, looked up): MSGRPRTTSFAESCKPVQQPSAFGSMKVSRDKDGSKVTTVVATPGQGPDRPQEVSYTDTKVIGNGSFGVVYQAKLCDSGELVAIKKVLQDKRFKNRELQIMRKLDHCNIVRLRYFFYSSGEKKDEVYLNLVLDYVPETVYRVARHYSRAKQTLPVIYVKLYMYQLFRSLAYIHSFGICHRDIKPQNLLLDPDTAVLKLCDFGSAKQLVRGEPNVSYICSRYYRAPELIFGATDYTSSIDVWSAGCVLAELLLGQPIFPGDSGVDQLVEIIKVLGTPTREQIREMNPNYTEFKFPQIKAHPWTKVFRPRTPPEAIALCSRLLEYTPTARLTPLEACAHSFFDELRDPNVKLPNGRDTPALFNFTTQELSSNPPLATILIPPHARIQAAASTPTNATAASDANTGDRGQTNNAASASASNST
Aurora kinase A (Homo sapiens), sequence (O14965 whole entry): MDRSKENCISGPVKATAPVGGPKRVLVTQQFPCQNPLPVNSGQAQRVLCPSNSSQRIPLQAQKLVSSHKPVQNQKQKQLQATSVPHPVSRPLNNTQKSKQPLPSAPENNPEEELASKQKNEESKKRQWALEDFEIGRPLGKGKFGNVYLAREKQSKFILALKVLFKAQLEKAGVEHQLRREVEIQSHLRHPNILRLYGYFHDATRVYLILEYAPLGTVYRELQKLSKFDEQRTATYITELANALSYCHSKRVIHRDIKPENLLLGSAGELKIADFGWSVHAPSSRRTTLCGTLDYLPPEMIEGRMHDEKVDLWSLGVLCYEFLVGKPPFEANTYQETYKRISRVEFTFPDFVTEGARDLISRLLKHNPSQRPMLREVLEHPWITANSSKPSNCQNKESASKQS
MAP kinase-activated protein kinase 5 (Homo sapiens), sequence (Q8IW41 whole entry): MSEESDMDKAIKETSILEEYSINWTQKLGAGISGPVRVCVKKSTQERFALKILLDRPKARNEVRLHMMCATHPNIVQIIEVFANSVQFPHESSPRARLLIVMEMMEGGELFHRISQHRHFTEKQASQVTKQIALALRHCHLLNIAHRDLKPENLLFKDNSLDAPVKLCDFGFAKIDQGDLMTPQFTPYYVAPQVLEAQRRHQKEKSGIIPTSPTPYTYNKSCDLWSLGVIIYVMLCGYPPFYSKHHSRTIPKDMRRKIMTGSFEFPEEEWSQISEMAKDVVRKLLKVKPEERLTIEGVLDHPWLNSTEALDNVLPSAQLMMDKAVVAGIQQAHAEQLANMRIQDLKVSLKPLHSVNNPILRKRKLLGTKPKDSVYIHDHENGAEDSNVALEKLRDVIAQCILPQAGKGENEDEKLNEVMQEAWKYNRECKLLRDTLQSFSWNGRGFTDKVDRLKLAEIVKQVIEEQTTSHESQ

Row | IC50 [2] [nM] | Activity [3] [%] | Activity [4] [%] | Activity [5] [%] | Activity [6] [%] | Activity [7] [%] | Activity [8] [%] | Activity [9] [%] | Activity [10] [%] | Activity [11] [%] | Activity [12] [%] | Activity [13] [%] | Activity [14] [%] | Activity [15] [%] | Activity [16] [%] | Activity [17] [%] | Activity [18] [%] | Activity [19] [%] | Activity [20] [%] | Structure (SMILES) | Activity [1] | also measured
1 | 17 | 111 | 88 | 104 | 94 | 95 | 100 | 96 | 98 | 73 | 107 | 106 | 103 | 97 | 132 | 91 | 109 | 84 | 58 | CC(C)Nc1cc(-c2oc3ccccc3c(=O)c2-c2ccc(F)cc2)ccn1 | inactive | Activity [21]: 98%; Activity [22]: 102%; Activity [23]: 101%; Activity [24]: 104%; Activity [25]: 99%; Activity [26]: 89%; Activity [27]: 102%; Activity [28]: 100%; Activity [29]: 100%; Activity [30]: 96%; Activity [31]: 95%; Activity [32]: 104%; Activity [33]: 100%; Activity [34]: 72%; Activity [35]: 94%
2 | 34 | 106 | 91 | 107 | 96 | 93 | 99 | 93 | 104 | 83 | 111 | 114 | 104 | 98 | 124 | 95 | 102 | 96 | 71 | O=c1c(-c2ccc(F)cc2)c(-c2ccnc(NC3CCCCC3)c2)oc2ccccc12 | inactive | Activity [21]: 101%; Activity [22]: 94%; Activity [23]: 98%; Activity [24]: 99%; Activity [25]: 104%; Activity [26]: 95%; Activity [27]: 102%; Activity [28]: 97%; Activity [29]: 107%; Activity [30]: 102%; Activity [31]: 102%; Activity [32]: 102%; Activity [33]: 100%; Activity [34]: 66%; Activity [35]: 106%
